Results taken from publication PMC4645461 (Peptides, 2015).
“Also recorded” adds a separate entry of the source.

Key:
[1] = cited from earlier work
rat GLP-1 receptor = target: T1, rat GLP-1 receptor (Rattus norvegicus, UniProt P32301); test: cAMP accumulation, CHL cells over-expressing the rat GLP-1 receptor; assay type: cell-based; settings: analogue average EC50/average GLP-1 EC50; below 1 enhanced efficacy, above 1 decreased efficacy vs native peptide
T1 construct: host or cells: CHL (Chinese hamster lung)
T1 sequence (P32301 22-463): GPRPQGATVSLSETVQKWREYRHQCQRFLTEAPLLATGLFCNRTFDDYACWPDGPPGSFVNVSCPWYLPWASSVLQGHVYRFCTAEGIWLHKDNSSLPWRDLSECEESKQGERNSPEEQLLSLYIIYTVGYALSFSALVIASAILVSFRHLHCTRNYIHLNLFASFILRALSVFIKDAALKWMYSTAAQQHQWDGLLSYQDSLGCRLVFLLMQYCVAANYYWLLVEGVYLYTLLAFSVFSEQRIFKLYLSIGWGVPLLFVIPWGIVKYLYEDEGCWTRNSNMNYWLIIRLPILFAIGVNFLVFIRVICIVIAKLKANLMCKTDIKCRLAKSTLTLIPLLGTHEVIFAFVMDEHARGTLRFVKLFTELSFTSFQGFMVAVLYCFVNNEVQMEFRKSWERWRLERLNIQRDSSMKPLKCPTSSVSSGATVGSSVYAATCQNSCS
Method: (§1) For cAMP studies, cells were seeded at a density of 150000 cells/ml in a 48 well plate (Nunc, VWR International Inc., Chicago, USA) and incubated for 24 h. Cells were serum starved for 1 h and then incubated for 30 mins at room temperature with a range of peptide concentrations diluted in serum free DMEM (Sigma–Aldrich, Dorset, UK) in the presence of 1 mM IBMX (3-isobutyl-1-methylxanthine, Sigma–Aldrich). […] EC50’s were calculated using Prism v5 (GraphPad Software Inc., San Diego, CA, USA). Concentrations were applied in duplicate or triplicate per experiment and each experiment repeated a minimum of 3 times.
(§2) All food and bodyweight data are presented as mean ± SEM. […] Differences in 0–7 days cumulative food intake and bodyweight data were analysed using one way ANOVA and post hoc tests with Dunnett’s or Bonferroni corrections for multiple comparisons (Prism v5, GraphPad Software Inc. San Diego, CA, USA). cAMP EC50’s were calculated using a sigmoidal dose response curve and non-linear regression (Prism v5). […] In all cases P < 0.05 was considered statistically significant.

human GLP-1 receptor = settings: compared to native peptides; ref [22],[23],[32]; cited from earlier work
[2] = rodents and humans; ref [7],[19],[34],[36],[37]; cited from earlier work
rat glucagon receptor = target: T2, rat glucagon receptor (Rattus norvegicus, UniProt P30082); test: cAMP accumulation, CHO-K1 cells over-expressing the rat glucagon receptor; assay type: cell-based; settings: rat glucagon receptor vs rat GLP-1 receptor
T2 construct: host or cells: CHO-K1
Method: as §1, §2

human glucagon receptor = settings: compared to native peptides; ref [22],[23],[32]; cited from earlier work
[3] = design: method as in earlier work; settings: native oxyntomodulin and longer lasting dual analogues; rodents ref [6],[9],[10],[23],[26],[31]; humans ref [36],[37]; cited from earlier work
From the text: Additionally, methods of peptide administration differ: some studies infused peptides while others administer ...

T2 sequence (P30082 27-485): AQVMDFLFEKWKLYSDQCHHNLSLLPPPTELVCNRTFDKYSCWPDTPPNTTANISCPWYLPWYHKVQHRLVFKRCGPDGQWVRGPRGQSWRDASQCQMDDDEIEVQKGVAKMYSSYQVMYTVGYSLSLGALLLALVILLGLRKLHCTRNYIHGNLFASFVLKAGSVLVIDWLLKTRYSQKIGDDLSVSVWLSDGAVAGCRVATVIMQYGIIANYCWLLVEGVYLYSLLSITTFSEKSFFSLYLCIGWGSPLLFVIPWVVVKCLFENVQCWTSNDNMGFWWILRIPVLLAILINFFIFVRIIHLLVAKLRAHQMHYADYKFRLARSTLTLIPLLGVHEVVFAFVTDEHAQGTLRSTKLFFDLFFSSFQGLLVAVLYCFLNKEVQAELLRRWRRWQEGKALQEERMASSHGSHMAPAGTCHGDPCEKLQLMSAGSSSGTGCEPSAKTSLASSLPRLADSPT

## Exendin-4
[1]; ref [33],[38]
  weight loss in standard chow fed animals: weight loss

## GLP-1(7-36NH2)
Rat GLP-1 receptor
  EC50 ratio to native peptide, Rat GLP-1r: 1.0 arbitrary units

## oxyntomodulin [OXM]
Human GLP-1 receptor
  activation of human GLP-1 receptor: reduced efficacy compared to the native peptides
[2]
  energy expenditure: increase energy expenditure
Rat glucagon receptor
  preference between rat glucagon and GLP-1 receptors: greater efficacy at the glucagon receptor than the GLP1 receptor; also recorded: favoured glucagon receptor activity
Human glucagon receptor
  activation of human glucagon receptor: reduced efficacy compared to the native peptides
[1]; peripheral administration, rodents ref [1],[5],[6],[25], humans ref [4],[36],[37]
  weight loss: causes weight loss
[3]
  food intake after repeated peripheral administration: reduction in food intake
